Data: patent US20120046329A1, “MODULATORS OF NOD1 AND NOD2 SIGNALING, METHODS OF IDENTIFYING MODULATORS OF NOD1 AND NOD2 SIGNALING, AND USES THEREOF” (Sanford-Burnham Medical Research Institute, priority 2010, published 2012)
≈ marks a conversion by molar mass, not a printed value.

How the values were obtained:
[1] = Plasma protein binding, human; assay type: in vitro ADME; details: for Plasma Protein Binding (% Bound): Human
[2] = Plasma protein binding, mouse; assay type: in vitro ADME; details: for Plasma Protein Binding (% Bound): Mouse
[3] = target: T1, NOD1 (Homo sapiens, UniProt Q9Y239); experiment: γ-tri-DAP-induced IkBα mRNA expression; assay type: cell-based
T1 sequence (Q9Y239 1-953): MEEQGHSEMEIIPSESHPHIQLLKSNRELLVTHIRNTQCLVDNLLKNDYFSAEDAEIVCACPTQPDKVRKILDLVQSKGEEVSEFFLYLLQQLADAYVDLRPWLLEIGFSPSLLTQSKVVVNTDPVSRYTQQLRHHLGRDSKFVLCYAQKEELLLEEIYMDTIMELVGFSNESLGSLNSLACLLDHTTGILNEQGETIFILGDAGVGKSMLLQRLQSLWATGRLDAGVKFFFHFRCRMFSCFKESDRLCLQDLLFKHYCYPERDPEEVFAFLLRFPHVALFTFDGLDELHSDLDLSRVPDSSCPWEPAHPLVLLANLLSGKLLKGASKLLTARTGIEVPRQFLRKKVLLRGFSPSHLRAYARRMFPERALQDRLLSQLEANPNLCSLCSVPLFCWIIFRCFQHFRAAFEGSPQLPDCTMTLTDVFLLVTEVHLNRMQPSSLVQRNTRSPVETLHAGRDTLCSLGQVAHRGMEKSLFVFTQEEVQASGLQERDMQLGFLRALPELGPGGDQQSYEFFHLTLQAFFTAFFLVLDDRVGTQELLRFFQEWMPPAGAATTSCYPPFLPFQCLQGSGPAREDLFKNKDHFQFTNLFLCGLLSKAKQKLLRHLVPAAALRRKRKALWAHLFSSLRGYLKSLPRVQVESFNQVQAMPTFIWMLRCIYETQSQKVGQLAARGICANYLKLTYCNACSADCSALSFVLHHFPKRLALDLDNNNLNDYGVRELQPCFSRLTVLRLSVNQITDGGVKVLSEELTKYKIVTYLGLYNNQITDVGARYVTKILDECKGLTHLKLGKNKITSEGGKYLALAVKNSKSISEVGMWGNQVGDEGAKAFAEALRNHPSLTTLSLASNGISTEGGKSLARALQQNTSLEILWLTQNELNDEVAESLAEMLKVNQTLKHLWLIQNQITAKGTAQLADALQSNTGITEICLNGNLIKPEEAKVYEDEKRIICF
Method: RNA analysis: Total RNA was extracted using RNeasy™ Plus Mini kit (Qiagen). After isolation, 1-5 μg total RNA was reverse-transcribed, in the presence of oligo (dT) primer, according to the manufacturer (SuperScript First-Strand Synthesis, Invitrogen). First strand cDNA was diluted and analyzed in triplicates with gene-specific primers by realtime PCR, using a Stratagene Mx3000p sequence detection system with SYBR Green PCR master mix (Applied Biosystems). The gene expression (fold induction) was normalized with the respective levels of beta-actin or cyclophilin (CPH) expression. For TaqMan™-based quantitative PCR, assays were performed using TaqMan™ Gene Expression Master Mix with validated primers and probes (TNF: Hs00174128_ml, IL1B: Hs01555410_ml, IL6: Hs00985639_ml, NOD1: Hs00196075_ml, ACTB: hs999999903_ml) from Applied Biosystems.

[4] = Solubility in aqueous buffer
[5] = target: NOD2 (Homo sapiens, UniProt Q9HC29); experiment: MDP-induced IL-8 secretion in MCF-7/NOD2 cells; details: MCF-7 cells, ELISA
Sequence of NOD2 (Q9HC29 whole entry): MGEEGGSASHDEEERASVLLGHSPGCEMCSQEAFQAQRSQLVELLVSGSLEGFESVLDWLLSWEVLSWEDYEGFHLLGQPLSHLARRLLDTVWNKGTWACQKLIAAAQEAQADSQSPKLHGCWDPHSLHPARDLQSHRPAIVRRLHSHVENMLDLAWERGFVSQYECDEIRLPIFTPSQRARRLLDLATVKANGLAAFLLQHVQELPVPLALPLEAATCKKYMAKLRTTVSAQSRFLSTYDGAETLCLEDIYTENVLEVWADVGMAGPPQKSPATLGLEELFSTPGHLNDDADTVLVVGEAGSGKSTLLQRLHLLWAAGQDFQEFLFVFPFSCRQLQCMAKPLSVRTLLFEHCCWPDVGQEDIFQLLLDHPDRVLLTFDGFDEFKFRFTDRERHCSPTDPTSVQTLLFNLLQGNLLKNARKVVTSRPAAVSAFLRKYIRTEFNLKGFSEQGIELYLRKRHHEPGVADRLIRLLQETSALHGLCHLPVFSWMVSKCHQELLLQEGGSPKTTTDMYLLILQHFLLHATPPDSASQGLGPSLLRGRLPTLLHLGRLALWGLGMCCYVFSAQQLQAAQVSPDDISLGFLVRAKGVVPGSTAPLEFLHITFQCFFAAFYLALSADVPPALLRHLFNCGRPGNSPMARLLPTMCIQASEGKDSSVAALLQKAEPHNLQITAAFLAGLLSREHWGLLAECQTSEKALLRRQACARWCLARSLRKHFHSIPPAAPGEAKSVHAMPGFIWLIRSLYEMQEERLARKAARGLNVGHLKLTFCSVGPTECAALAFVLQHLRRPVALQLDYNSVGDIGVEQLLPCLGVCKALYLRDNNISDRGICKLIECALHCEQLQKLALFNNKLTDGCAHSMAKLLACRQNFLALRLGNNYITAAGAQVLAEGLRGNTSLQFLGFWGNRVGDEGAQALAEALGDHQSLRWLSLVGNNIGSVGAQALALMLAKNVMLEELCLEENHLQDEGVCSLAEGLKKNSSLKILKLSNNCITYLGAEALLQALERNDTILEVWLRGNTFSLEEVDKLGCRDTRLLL

[6] = system: interferon response stimuli (RIG-I/MDA-5, IRF3); experiment: ISRE-driven luciferase reporter in HEK293T, poly(I:C), poly(dA:dT), Sendai virus; details: 5 μM

SMILES: Cc1ccc(S(=O)(=O)n2c(N)nc3ccccc32)cc1 [Compound 1]
- Plasma Protein Binding (% Bound) ([1]; 1 μM): 97.74 % Bound
- Plasma Protein Binding (% Bound) ([1]; 10 μM): 97.45 % Bound
- Plasma protein binding (in words) ([1]; human): high
- Plasma Protein Binding (% Bound) ([2]; 1 μM): 95.45 % Bound
- Plasma Protein Binding (% Bound) ([2]; 10 μM): 94.91 % Bound
- Plasma protein binding (in words) ([2]; mouse): high
- γ-tri-DAP-induced expression of IkBα at the mRNA level [3]: inhibited
- Solubility ([4]; aqueous buffer, pH 6.2, aqueous buffer): 1.7 µg/mL (≈ 5.92 µM)
- Solubility ([4]; pH 5.0, aqueous buffer): 2.0 µg/mL (≈ 6.96 µM)
- Solubility ([4]; pH 7.4, aqueous buffer): 2.0 µg/mL (≈ 6.96 µM)
- Solubility (in words) ([4]; three pH levels): low
- Activity on MDP induced (NOD2) mediated IL-8 release (in words) [5]: inactivity
- Effect on ISRE-driven reporter gene activity induced by other interferon response stimuli [6]: no inhibition
